According to ChEMBL document CHEMBL6134851, “Comparative Study on Covalent and Noncovalent Endogenous Albumin-Binding β-Glucuronidase-Activated SN38 Prodrugs for Antitumor Efficacy” (J Med Chem, 2025):
Activity calls are given as the source filed them. No cut-off for these calls is given here.

How the values were obtained:
[1] = Toxicity in female BALB/cA nude mouse assessed as effect on body weight loss at 38 mg/kg, iv administered twice per week measured for 107 days; type: organism-based; conditions: in vivo, 2568 h, time 107 day
[2] = Toxicity in female BALB/cA nude mouse assessed as fibrotic changes in spleen at 38 mg/kg, iv administered once a week for 35 days by H and E staining based analysis; type: organism-based; conditions: in vivo, 840 h, time 35 day
[3] = Toxicity in female BALB/cA nude mouse assessed as mortality at 38 mg/kg, iv administered twice per week measured after 107 days; type: organism-based; conditions: in vivo, 2568 h, time 107 day
[4] = Toxicity in female BALB/cA nude mouse assessed as appearance of inflammatory lesions in tumor at 38 mg/kg, iv administered once a week for 35 days by H and E staining based analysis; type: organism-based; conditions: in vivo, 840 h, time 35 day
[5] = Volume of distribution in female BALB/c mouse at 38 mg/kg measured up to 168 hrs by HPLC analysis; type: ADME, organism-based; conditions: in vivo
[6] = Half life in female BALB/c mouse at 38 mg/kg measured up to 168 hrs by HPLC analysis; type: ADME, organism-based; conditions: in vivo
HCT-116 [7] = assay: Antitumor activity against human HCT-116 cells xenografted in female BALB/cA nude mouse model assessed as relative tumor proliferation rate at 38 mg/kg, iv administered twice per week measured after 24 days relative to control; type: functional; conditions: time 24 day
[8] = Toxicity in female BALB/cA nude mouse assessed as necrosis in tumor tissue at 38 mg/kg, iv measured after 24 hrs by H and E staining based analysis; type: organism-based; conditions: in vivo
[9] = Clearance in female BALB/c mouse at 38 mg/kg measured up to 168 hrs by HPLC analysis; type: ADME, organism-based; conditions: in vivo
[10] = Toxicity in female BALB/cA nude mouse assessed as fibrotic changes in lung at 38 mg/kg, iv administered once a week for 35 days by H and E staining based analysis; type: organism-based; conditions: in vivo, 840 h, time 35 day
[11] = Toxicity in female BALB/cA nude mouse assessed as appearance of inflammatory lesions in spleen at 38 mg/kg, iv administered once a week for 35 days by H and E staining based analysis; type: organism-based; conditions: in vivo, 840 h, time 35 day
[12] = Toxicity in female BALB/cA nude mouse assessed as fibrotic changes in heart at 38 mg/kg, iv administered once a week for 35 days by H and E staining based analysis; type: organism-based; conditions: in vivo, 840 h, time 35 day
[13] = Toxicity in female BALB/cA nude mouse assessed as appearance of fibrosis in lung at 38 mg/kg, iv measured after 24 hrs by H and E staining based analysis; type: organism-based; conditions: in vivo
[14] = Toxicity in female BALB/cA nude mouse assessed as effect on body weight loss at 38 mg/kg, iv administered twice per week measured after 107 days; type: organism-based; conditions: in vivo, 2568 h, time 107 day
[15] = Toxicity in female BALB/cA nude mouse assessed as effect on body weight loss at 38 mg/kg, iv administered once a week for 35 days; type: organism-based; conditions: in vivo, 840 h, time 35 day
[16] = Toxicity in female BALB/cA nude mouse assessed as damage in lung at 38 mg/kg, iv measured after 24 hrs by H and E staining based analysis; type: organism-based; conditions: in vivo
[17] = Cmax in female BALB/c mouse at 38 mg/kg measured up to 168 hrs by HPLC analysis; type: ADME, organism-based; conditions: in vivo
[18] = Toxicity in female BALB/cA nude mouse assessed as appearance of inflammatory lesions in kidney at 38 mg/kg, iv administered once a week for 35 days by H and E staining based analysis; type: organism-based; conditions: in vivo, 840 h, time 35 day
HCT-116 [19] = assay: Antitumor activity against human HCT-116 cells xenografted in female BALB/cA nude mouse model assessed as tumor shrinkage by measuring relative tumor proliferation rate at 25 mg/kg,iv administered twice per week and measured after 24 days relative to control; type: functional; conditions: time 24 day
HCT-116 [20] = assay: Antitumor activity against human HCT-116 cells xenografted in female BALB/cA nude mouse model assessed as tumor shrinkage at 25 mg/kg, iv administered twice per week measured after 100 days relative to control; type: functional; conditions: time 100 day
[21] = Volume of distribution in female BALB/c mouse at 25 mg/kg measured up to 120 hrs by HPLC analysis; type: ADME, organism-based; conditions: in vivo
[22] = Toxicity in female BALB/cA nude mouse assessed as fibrotic changes in lung at 25 mg/kg, iv administered once a week for 35 days by H and E staining based analysis; type: organism-based; conditions: in vivo, 840 h, time 35 day
[23] = Prodrug release in female BALB/c nude mouse tumor assessed as (S)-4,11-diethyl-4,9-dihydroxy-1,12-dihydro-14H-pyrano[3',4':6,7]indolizino[1,2-b]quinoline-3,14(4H)-dione accumulation at 25 mg/kg measured after 12 hr by HPLC analysis; type: ADME, organism-based, Neoplasm; conditions: in vivo
[24] = Toxicity in female BALB/cA nude mouse assessed as effect on body weight loss at 25 mg/kg, iv administered once a week for 35 days; type: organism-based; conditions: in vivo, 840 h, time 35 day
[25] = Toxicity in female BALB/cA nude mouse assessed as appearance of inflammatory lesions in heart at 25 mg/kg, iv administered once a week for 35 days by H and E staining based analysis; type: organism-based; conditions: in vivo, 840 h, time 35 day
[26] = Toxicity in female BALB/cA nude mouse assessed as mortality at 25 mg/kg, iv administered twice per week measured after 107 days; type: organism-based; conditions: in vivo, 2568 h, time 107 day
[27] = Half life in female BALB/c mouse at 25 mg/kg measured up to 120 hrs by HPLC analysis; type: ADME, organism-based; conditions: in vivo
[28] = Toxicity in female BALB/cA nude mouse assessed as fibrotic changes in kidney at 25 mg/kg, iv administered once a week for 35 days by H and E staining based analysis; type: organism-based; conditions: in vivo, 840 h, time 35 day
[29] = Toxicity in female BALB/cA nude mouse assessed as effect on body weight loss at 25 mg/kg, iv administered twice per week measured after 107 days; type: organism-based; conditions: in vivo, 2568 h, time 107 day
[30] = Toxicity in female BALB/cA nude mouse assessed as necrosis in tumor tissue at 25 mg/kg, iv measured after 24 hrs by H and E staining based analysis; type: organism-based; conditions: in vivo
HCT-116 [31] = assay: Antitumor activity against human HCT-116 cells xenografted in female BALB/cA nude mouse model assessed as increase in tumor cell apoptosis by measuring increase in red fluorescence at 25 mg/kg, iv by TUNEL analysis; type: functional, organism-based
[32] = Toxicity in female BALB/cA nude mouse assessed as appearance of inflammatory lesions in lung at 25 mg/kg, iv administered once a week for 35 days by H and E staining based analysis; type: organism-based; conditions: in vivo, 840 h, time 35 day
[33] = Toxicity in female BALB/cA nude mouse assessed as fibrotic changes in liver at 25 mg/kg, iv administered once a week for 35 days by H and E staining based analysis; type: organism-based; conditions: in vivo, 840 h, time 35 day
[34] = Toxicity in female BALB/cA nude mouse assessed as animal fatality at 25 mg/kg, iv administered once a week for 35 days; type: organism-based; conditions: in vivo, 840 h, time 35 day
[35] = Toxicity in female BALB/cA nude mouse assessed as appearance of inflammatory lesions in liver at 25 mg/kg, iv administered once a week for 35 days by H and E staining based analysis; type: organism-based; conditions: in vivo, 840 h, time 35 day
BXPC-3 = assay: Antitumor activity against human BXPC-3 cells xenografted in female BALB/cA nude mouse model assessed as suppression of tumor growth by measuring relative tumor proliferation rate at 25 mg/kg, iv measured after 24 days relative to control; type: functional; conditions: time 24 day
[36] = Toxicity in female BALB/cA nude mouse assessed as fibrotic changes in heart at 25 mg/kg, iv administered once a week for 35 days by H and E staining based analysis; type: organism-based; conditions: in vivo, 840 h, time 35 day

Question: Which Activity [1] does the source give for `CCc1c2c(nc3ccc(OCc4ccc(O[C@@H]5O[C@H](C(=O)O)[C@@H](O)[C@H](O)[C@H]5O)c(NC(=O)CCNC(=O)COCCOCCNC(=O)COCCOCCNC(=O)CC[C@H](NC(=O)CCCCCCCCCCCCCCCCC(=O)O)C(=O)O)c4)cc13)-c1cc3c(c(=O)n1C2)COC(=O)[C@]3(O)CC` here?
Answer: Non-toxic

Question: And the Activity [2]?
Answer: Non-toxic

Question: What about the Activity [3] of the same compound?
Answer: Non-toxic

Question: And the Activity [4]?
Answer: Non-toxic

Question: What about the Vd [5] of the same compound?
Answer: 0.24 L/kg

Question: And the half-life [6]?
Answer: 3.65 h

Question: What about the Activity (HCT-116 [7]) of the same compound?
Answer: 10.59%

Question: And the Activity [8]?
Answer: Toxic

Question: And the clearance [9]?
Answer: 0.753 mL/min/kg

Question: And the Activity [10]?
Answer: Non-toxic

Question: And the Activity [11]?
Answer: Non-toxic

Question: What about the Activity [12] of the same compound?
Answer: Non-toxic

Question: And the Activity [13]?
Answer: Toxic

Question: And the Activity [14]?
Answer: Toxic

Question: What about the Activity [15] of the same compound?
Answer: Non-toxic

Question: What about the Activity [16] of the same compound?
Answer: Toxic

Question: What about the Cmax [17] of the same compound?
Answer: 112 µg/mL

Question: What about the Activity [18] of the same compound?
Answer: Non-toxic

Question: With `CCc1c2c(nc3ccc(OCc4ccc(O[C@@H]5O[C@H](C(=O)O)[C@@H](O)[C@H](O)[C@H]5O)c(NC(=O)CCNC(=O)CCCCCN5C(=O)C=CC5=O)c4)cc13)-c1cc3c(c(=O)n1C2)COC(=O)[C@]3(O)CC` as the compound, how does the Activity (HCT-116 [19]) read?
Answer: 4.6%

Question: What about the Activity (HCT-116 [20]) of the same compound?
Answer: 100%

Question: And the Vd [21]?
Answer: 0.61 L/kg

Question: And the Activity [22]?
Answer: Non-toxic

Question: What about the Drug metabolism [23] of the same compound?
Answer: 0.725 % ID/g

Question: What about the Activity [24] of the same compound?
Answer: Non-toxic

Question: And the Activity [25]?
Answer: Non-toxic

Question: What about the Activity [26] of the same compound?
Answer: Non-toxic

Question: What about the t1/2 [27] of the same compound?
Answer: 52.31 h

Question: And the Activity [28]?
Answer: Non-toxic

Question: And the Activity [29]?
Answer: Non-toxic

Question: And the Activity [30]?
Answer: Toxic

Question: What about the Activity (HCT-116 [31]) of the same compound?
Answer: Active

Question: And the Activity [32]?
Answer: Non-toxic

Question: And the Activity [33]?
Answer: Non-toxic

Question: And the Activity [34]?
Answer: Non-toxic

Question: And the Activity [35]?
Answer: Non-toxic

Question: And the Activity (BXPC-3)?
Answer: 8.97%

Question: What about the Activity [36] of the same compound?
Answer: Non-toxic
